Counter-ions that a name gives are not always drawn.
Key:
[1] = system: Compound 48/80-induced scratching; assay: mouse scratch model: antagonism of Compound 48/80-induced scratching (anti-pruritic activity); type: in vivo, male Swiss albino mice; details: sc, 0.5 h, Compound 48/80 challenge, 30 min observation
Method: Testing was performed in a mouse scratch model under blind conditions.
Groups of 8-10 male Swiss albino mice (Hilltop Lab Animals, Inc., Scottsdale, Pa.), weighing […], were used in the testing. They were housed under controlled temperature of 23°-25° C. Food and water were freely available. Before the experiments, the mice were weighted, put into individual boxes and allowed to acclimate for 30 min.
Vehicle used to dissolve the test compounds: 20% w/w cremafor EL.
The compounds to be tested for anti-pruritic activity were dissolved in the vehicle of 20% w/w cremafor EL.
100 μl of the vehicle (3-5 doses, n=8-10) was injected s.c. into the back of the neck of mice 20 min. before challenging them with 100 μl of Compound 48/80 (2 mg/ml; […]) injected s.c. into the back of the neck.
To each mouse of a group of 8-10 mice previously subjected to the standard challenge various doses of the compounds, to be tested for anti-pruritic activity, were administered s.c. into the back of the neck.
For each group of 8-10 mice, the mean values for scratching were no to relative % antagonism of scratching and then plotted vs. dose of test compounds. Interval estimates of mean A50 were determined by nonlinear regression analysis (Kaleida Graph) and mean % inhibition of scratching was calculated.

[2] = in vivo; hydrochloride; cited from earlier work
[3] = in vivo, iv; cited from earlier work

| Compound | inhibition at 2.5 mg/kg [1] [%] | inhibition at 5 mg/kg [1] [%] | further results |
| --- | --- | --- | --- |
| O=C(O)C1(c2ccccc2)CCN(CCC(c2ccccc2)(c2ccccc2)c2ccccn2)CC1 [(1), 1-[3,3-diphenyl-3-(2-pyridyl)propyl]-4-phenyl-4-piperidinecarboxylic acid hydrochloride] | 32 | 65 | inhibition at 10 mg/kg ([1]; 10.0 mg/kg): 83% |
| OC1(Cc2ccc(Cl)cc2)CCN(CCC(c2ccccc2)(c2ccccc2)c2ccccc2)CC1 [(2), 1-(3,3,3-triphenylpropyl)-4-hydroxy-4-p-chlorobenzylpiperidine] | 68 | 94 | inhibition at 1 mg/kg ([1]; 1.0 mg/kg): 35% |
| CN(C)C(=O)C(CCN1CCC(O)(c2ccc(Cl)cc2)CC1)(c1ccccc1)c1ccccc1 [Loperamide HCl, 4-(p-chlorophenyl)-4-hydroxy-N-N-dimethyl-α,α-diphenyl-1-piperidinebutyramide hydrochloride] |  |  | CNS effects [2]: completely free of the undesirable CNS effects |
| CN1CC[C@]23c4c5ccc(O)c4O[C@H]2[C@@H](O)C=C[C@H]3[C@H]1C5 [morphine] |  |  | general itching, incidence [3]: about 1 % of patients |
